According to PubChem BioAssay (NCI):
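Dose response: 5 concentrations. Exposure: 48 h. Format: 96-well plates. Endpoint: linear interpolation; highest concentration if not reached. GI50 = concentration required for 50% inhibition of growth. At the TGI there is no net growth.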

Legend:
Test in all cases: DTP human tumour cell line panel, 48 h
HCC-2998 colon = tested on: HCC-2998 colon
LOX IMVI melanoma = tested on: LOX IMVI melanoma
NCI-H460 lung = tested on: NCI-H460 lung
SNB-19 CNS = tested on: SNB-19 CNS
HT29 colon = tested on: HT29 colon
SK-OV-3 ovarian = tested on: SK-OV-3 ovarian
KM12 colon = tested on: KM12 colon
M14 melanoma = tested on: M14 melanoma
K-562 leukemia = tested on: K-562 leukemia
MALME-3M melanoma = tested on: MALME-3M melanoma
SK-MEL-2 melanoma = tested on: SK-MEL-2 melanoma
PC-3 prostate = tested on: PC-3 prostate
T-47D breast = tested on: T-47D breast
HOP-92 NSCLC = tested on: HOP-92 NSCLC

SMILES | TGI (HCC-2998 colon) [µM] | TGI (LOX IMVI melanoma) [µM] | TGI (NCI-H460 lung) [µM] | TGI (SNB-19 CNS) [µM] | TGI (HT29 colon) [µM] | TGI (SK-OV-3 ovarian) [µM] | TGI (KM12 colon) [µM] | TGI (M14 melanoma) [µM] | TGI (K-562 leukemia) [µM] | TGI (MALME-3M melanoma) [µM] | TGI (SK-MEL-2 melanoma) [µM] | TGI (PC-3 prostate) [µM] | TGI (T-47D breast) [µM] | TGI (HOP-92 NSCLC) [µM] | GI50 (SNB-19 CNS) [µM] | GI50 (SK-OV-3 ovarian) [µM] | GI50 (M14 melanoma) [µM] | GI50 (K-562 leukemia) [µM]
CS/C(=N\C(=S)Nc1ccccc1)Nc1ccccc1 | 57 | 38.2 | 48.7 | 94.6 | 33.1 | 58.9 | > 100 | 96.1 | > 100 | 60.4 | 56.4 |  |  |  |  |  |  | 
N=C(N)C(N=Nc1ccccc1)C(N)=O (centres undefined) | > 100 | > 100 | > 100 | > 100 | > 100 | > 100 | > 100 | > 100 | > 100 | > 100 | > 100 | > 100 | > 100 | > 100 |  |  |  | 
FC(F)(F)C(C1=NC(C(F)(F)F)(C(F)(F)F)N=C(N2CCOCC2)O1)C(F)(F)F | > 100 | 63.8 | > 100 | > 100 | 57.8 | > 100 | > 100 | 60.5 |  |  | 57.8 | 63.2 | 89.4 | > 100 |  |  |  | 
COc1ccc(C2C(=O)C(Cl)N2Nc2nc(C)cc(=O)[nH]2)cc1OC (centres undefined) | > 100 | > 100 | > 100 | > 100 | > 100 |  | > 100 | > 100 | > 100 |  | > 100 |  |  | 81.7 |  |  |  | 
C=CC(=O)N1CCN(c2nc(OC[C@@H]3CCCN3C)nc3c2CCN(c2cccc4cccc(C)c24)C3)C[C@@H]1CC#N |  |  |  | 2.99 |  | 3.17 |  | 3.57 | 4.28 |  |  |  |  |  | 1.59 | 1.68 | 1.82 | 1.71
NC(=O)NO | 1810 | > 2430 | 2040 | > 2340 | > 2440 | > 2500 | 2500 | 1950 | > 2260 | 2480 | > 2450 | > 2500 | > 2500 | 2330 |  |  |  | 
COc1ccccc1N1C(Cl)C(=O)C1c1c[nH]c2ccccc12 (centres undefined) |  |  | > 100 | > 100 | > 100 | > 100 | > 100 | > 100 | > 100 |  | > 100 |  |  | > 100 |  |  |  | 
O=C(O)C(O)Cc1ccccn1 (centres undefined) | > 100 | > 100 | > 100 | > 100 | > 100 | > 100 | > 100 | > 100 | > 100 | > 100 | > 100 | > 100 | > 100 | > 100 |  |  |  | 
CN(C)CCCNc1ncnc2nc[nH]c12 | > 100 | > 100 | > 100 | > 100 | > 100 | > 100 | > 100 | > 100 | > 100 | > 100 | > 100 | > 100 | > 100 | > 100 |  |  |  | 
COc1cccc(Nc2nc(-c3cccs3)nc3ccc(Br)cc23)c1 |  | > 100 | > 100 | 78.7 | > 100 | > 100 | > 100 | > 100 | > 100 | > 100 | > 100 | > 100 | > 100 | > 100 |  |  |  | 
